# Target: T1, Recombinant human BRD4 containing dual bromodomains (BRD4-BD12 (1-477)) (Homo sapiens, UniProt O60885)
# T1 construct: Recombinant human BRD4 containing dual bromodomains (BRD4-BD12 (1-477)); made in house; host or cells: E. coli BL21-CodonPlus (DE3), modified pET vector
# Assay: BRD4 Alphascreen binding assay
# Summary of the method: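 His-tagged human BRD4 tandem bromodomains (1-477, E. coli) incubated 1 h at room temperature with biotinylated tetra-acetylated H4 (1-21) peptide and compound in HEPES pH 7.5 buffer with 2 mM DTT. AlphaScreen signal read 30 min after adding beads (7.5 μg/ml); IC50 from four-parameter fit after normalization to controls.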
row,SMILES,IC50
1,"Cc1noc(C)c1-c1cnc2c(c1)c(-c1c(Cl)cc(C(=O)O)cc1OC(F)(F)F)cn2C(C1CCC1)C1CCC1 [P-0380, 3-chloro-4-(1-(dicyclobutylmethyl)-5-(3,5-dimethylisoxazol-4-yl)-1H-pyrrolo[2,3-b]pyridin-3-yl)-5-(trifluoromethoxy)benzoic acid]",8 to 1000 µM
2,"Cc1noc(C)c1-c1cnc2c(c1)c(-c1c(Cl)cc(C(=O)O)cc1OC1CC1)cn2C1CCOCC1 [P-0381, 3-chloro-5-cyclopropoxy-4-(5-(3,5-dimethylisoxazol-4-yl)-1-(tetrahydro-2H-pyran-4-yl)-1H-pyrrolo[2,3-b]pyridin-3-yl)benzoic acid]",1 to 8 µM
3,"Cc1noc(C)c1-c1cnc2c(c1)c(-c1ccc(C(=O)O)cc1OC(F)(F)F)cn2C1CCCC1 [P-0382, 4-(1-cyclopentyl-5-(3,5-dimethylisoxazol-4-yl)-1H-pyrrolo[2,3-b]pyridin-3-yl)-3-(trifluoromethoxy)benzoic acid]",1 to 8 µM
4,"Cc1noc(C)c1-c1cnc2c(c1)c(-c1ccc(C(=O)O)cc1OC(F)(F)F)cn2C1(C)CCOC1 (centres unmarked) [P-0383, 4-(5-(3,5-dimethylisoxazol-4-yl)-1-(3-methyltetrahydrofuran-3-yl)-1H-pyrrolo[2,3-b]pyridin-3-yl)-3-(trifluoromethoxy)benzoic acid]",8 to 1000 µM
5,"Cc1noc(C)c1-c1cnc2c(c1)c(-c1ccc(C(=O)O)cc1OC(F)(F)F)cn2-c1cnc(C2CC2)nc1 [P-0384, 4-(1-(2-cyclopropylpyrimidin-5-yl)-5-(3,5-dimethylisoxazol-4-yl)-1H-pyrrolo[2,3-b]pyridin-3-yl)-3-(trifluoromethoxy)benzoic acid]",1 to 8 µM
6,"Cc1noc(C)c1-c1cnc2c(c1)c(-c1ccc(C(=O)O)cc1OC(F)(F)F)cn2C1(C)CCOCC1 [P-0385, 4-(5-(3,5-dimethylisoxazol-4-yl)-1-(4-methyltetrahydro-2H-pyran-4-yl)-1H-pyrrolo[2,3-b]pyridin-3-yl)-3-(trifluoromethoxy)benzoic acid]",8 to 1000 µM
7,"Cc1noc(C)c1-c1cnc2c(c1)c(-c1c(Cl)cc(C(=O)O)cc1OC(F)(F)F)cn2-c1cnc(C2CC2)nc1 [P-0386, 3-chloro-4-(1-(2-cyclopropylpyrimidin-5-yl)-5-(3,5-dimethylisoxazol-4-yl)-1H-pyrrolo[2,3-b]pyridin-3-yl)-5-(trifluoromethoxy)benzoic acid]",1 to 8 µM
8,"Cc1noc(C)c1-c1cnc2c(c1)c(-c1ccc(C(=O)O)cc1OCC(F)F)cn2-c1cnc(C2CC2)nc1 [P-0387, 4-(1-(2-cyclopropylpyrimidin-5-yl)-5-(3,5-dimethylisoxazol-4-yl)-1H-pyrrolo[2,3-b]pyridin-3-yl)-3-(2,2-difluoroethoxy)benzoic acid]",8 to 1000 µM

# — patent US11446287B2, “Compounds and methods for EP300 or CBP modulation and indications therefor” (Opna Immuno-Oncology SA, priority 2019, dated 2022)
